Values after ≈ are worked out from the molar mass of the structure shown. Each block holds one compound with its values, some of them ahead of it.
Experiments:
[1] = Aqueous solubility by nephelometry; assay type: physicochemical; conditions: aqueous medium (not further specified), kinetic from dmso stock, measured by nephelometry
Source text: (§1) Due to a lack of UV chromophore and/or poor mass spectrometry ionisation, nephelometry46 was used to measure the solubility. PAMPA (parallel artificial membrane permeability assay)47 was used to assess the permeability.

[2] = PAMPA (parallel artificial membrane permeability assay); assay type: in vitro ADME
Source text: as §1

PC3 cells [3] = conditions: 50 µM; cited from earlier work
[4] = system: L1210 mouse lymphocytic leukemia cells; parameters: method as in earlier work; conditions: in vitro; cited from earlier work
cancer cells = system: cancer cells; parameters: method as in PMID 20420415; conditions: 50 µM; cited from earlier work
PC3 cells [5] = experiment: SRB antiproliferative concentration-response assay; assay type: cell-based; conditions: Homo sapiens, PC-3, in vitro 96 h assay, full dose response curve
Method: (§2) Figure 6 a) Concentration–response curve for the antiproliferative effect of compound 28 on PC3 cells in vitro 96 h assay. b) Compound 28 inhibiting the migration properties of PC3 TEM cancer cells. FCS=fetal calf serum.
Cells were seeded in 100μl medium into 96-well plates. After 36 hours, serial doubling dilutions of drug (or vehicle) were added to give the required dose range in sextuplicate across the plate. Cells were incubated for a further 96 hours. The medium was then removed and cells were fixed by adding 50μl of 10% (w/v) trichloroacetic acid (TCA) for one hour at room temperature. The plates were gently washed by immersion in tap water three times then air dried. 50μl of 0.4% (w/v) SRB in 1% (v/v) acetic acid was added to each well for one hour. […] Absorbance at 570nm was measured using a SPECTRAmax 340PC plate reader.
(§3) Cells in standard tissue culture flasks were fluorescently labelled by incubation with 1umol/L CellTracker Green 5-chloromethylfluorescein diacetate (Invitrogen, Paisley) concomitant with serum starvation for two hours. Following trypsinisation cells were counted and added to the upper wells of 8um pore FluoroblokTM membrane inserts in 24-well companion plates (BD Biosciences, Franklin Lakes, NJ). […] Cells which successfully migrated to the lower surface of the filter were visualised using an inverted fluorescence

PC3 TEM cancer cells = experiment: Migration assay (Fluoroblok membrane, FCS chemotaxis); assay type: cell-based, human; conditions: 3‐ and 5‐fold GI50 concentrations, FCS-stimulated migration
Method: as §2
Whereas cembranoid natural products may not be inherently cytotoxic, an appreciable number do display an ability to inhibit the migratory and invasive properties of cancer cells.50 The effect of compound 28 on a PC3‐based migratory assay was therefore determined.
Cells were seeded in 100μl medium into 96-well plates. After 36 hours, serial doubling dilutions of drug (or vehicle) were added to give the required dose range in sextuplicate across the plate. Cells were incubated for a further 96 hours. […] Absorbance at 570nm was measured using a SPECTRAmax 340PC plate reader.
as §3

[6] = system: PC3 human prostate cancer cell line; experiment: NCI panel growth inhibition, PC3 line; assay type: cell-based; conditions: PC3, single concentration of 10 µM, 48 h, NCI screen, read-out: inhibition of proliferation
Method: A selection of fifteen of the cembranoid‐inspired compounds was screened against a panel of 60 cancer cell lines at the National Cancer Institute screening panel (see the Supporting Information).49 This cell‐based assay aims to discover compounds with a strong cytostatic or cytotoxic growth inhibition over 48 h. Unfortunately, only low levels (up to 20 %) of cell growth inhibition were seen when screened at a single concentration of 10 µM.

[7] = system: Caco‐2 human intestinal cancer cells; experiment: Permeability across a Caco-2 monolayer; assay type: in vitro ADME
[8] = Permeability across a Caco-2 monolayer; assay type: in vitro ADME, human; conditions: human, read-out: permeability across a monolayer of Caco‐2 cells

- solubility [1]: 500 µM (≈ 131 µg/mL)
- permeability (Pe) [2]: 25 ×10⁻⁶ cm/s
SMILES: C=CCC1OC(COC(=O)C=CC)C2CC=CCC12 (stereo not drawn) [Compound 15]

SMILES: C=C1CC[C@H](C(C)C)[C@@H]2[C@H]1[C@H]1C[C@](C)(O)[C@@H](O)CC[C@@](C)(O)[C@@H]2O1 [sclerophytin A]
- effect on proliferation (PC3 cells [3]): no effect on proliferation
- IC50 [4]: 0.003 µM
- inhibition of migration (cancer cells): 85%

- solubility [1]: 500 µM (≈ 111 µg/mL)
SMILES: OC1CCC=CCC2OC1C1CCCCC21 (stereo not drawn) [Compound 76]

- solubility [1]: 550 µM (≈ 145 µg/mL)
- GI50 (PC3 cells [5]): 63 µM
- permeability (Pe) [2]: 52 ×10⁻⁶ cm/s
- transporter efflux [7]: no evidence of transporter efflux
- Papp [8]: 16 ×10⁻⁶ cm/s
SMILES: O=C1CCC/C=C/C[C@@H]2O[C@H](CO1)[C@H]1CCCC[C@H]12 [Compound 28]
- effect on cell migration (PC3 TEM cancer cells): reduction to near basal levels of migration
- inhibition at 10 µM [6]: 17%

- solubility [1]: 550 µM (≈ 139 µg/mL)
- permeability (Pe) [2]: > 150 ×10⁻⁶ cm/s
SMILES: CC1(C)CCC(=O)OCC2OC1C1CCCCC21 (stereo not drawn) [Compound 65]

Source: PMC4869678, “Synthesis and Evaluation of a 2,11‐Cembranoid‐Inspired Library” (Chemistry (Weinheim an Der Bergstrasse, Germany), 2016)
